≈ marks a conversion by molar mass, not a printed value.
Key:
Bacillus subtilis = assay: Zone of Bacillus subtilis inhibition at 30 ug; type: functional
P388 = assay: Antiproliferative activity against murine P388D1 cell line; type: functional, cell-based; settings: Mus musculus
Escherichia coli = assay: Zone of Escherichia coli inhibition at 30 ug; type: functional

Row | Structure (SMILES) | inhibition zone (IZ) (Bacillus subtilis) | IC50 (P388) | inhibition zone (IZ) (Escherichia coli)
1 | CSC1=CC(=O)C(Br)=C[C@]12C=CNC1=C2C2=NCCc3c[nH]c(c32)C1=O | 3 mm | 0.081 µg/mL (≈ 0.189 µM) | 0 mm
2 | O=C1C=C(SC(=O)c2ccccc2)[C@@]2(C=CNC3=C2C2=NCCc4cn(C(=O)c5ccccc5)c(c42)C3=O)C=C1Br | 0 mm | 0.918 µg/mL (≈ 1.47 µM) | 0 mm
3 | O=C1C=C2S[C@H]3C[C@]2(C=C1Br)C1=C(N3)C(=O)c2[nH]cc3c2C1=NCC3 [(+)-DISCORHABDIN B] | 6 mm | 0.044 µg/mL (≈ 0.106 µM) | 1 mm
4 | O=C1C(Br)=CC2(C=C1Br)CCNC1=C2C2=NCCc3c[nH]c(c32)C1=O [DISCORHABDIN C] | 8 mm | 0.062 µg/mL (≈ 0.134 µM) | 1 mm
5 | CSC1=CC(=O)C(Br)=C[C@]12C=CNC1=C2C2=NCCc3cn(C)c(c32)C1=O [DISCORHABDIN U] | 3 mm | 0.089 µg/mL (≈ 0.201 µM) | 0 mm
6 | Cn1cc2c3c1C(=O)C1=C(C3=NCC2)C2(C=C(Br)C(=O)C(Br)=C2)CCN1 [DISCORHABDIN] | 8 mm | 0.182 µg/mL (≈ 0.381 µM) | 0 mm

From ChEMBL document CHEMBL1146927, “Semi-synthetic preparation of the rare, cytotoxic, deep-sea sourced sponge metabolites discorhabdins P and U” (Bioorg Med Chem Lett, 2006)
